From article PMC4858680, “A platinum-based hybrid drug design approach to circumvent acquired resistance to molecular targeted tyrosine kinase inhibitors” (Scientific Reports, 2016)

Tests used:
PDGFRB = PDGFRB (Homo sapiens, UniProt P09619); conditions: 10 μM
ABL2 = ABL2 (Homo sapiens, UniProt P42684); conditions: 10 μM
FGFR2 = FGFR2 (Homo sapiens, UniProt P21802); test: biochemical; conditions: read-out: Percent control
MET(M1250T) = MET(M1250T) (Homo sapiens, UniProt P08581, M1250T); test: biochemical; conditions: read-out: Percent control
TRKC = TRKC (Homo sapiens, UniProt Q16288); test: biochemical; conditions: read-out: Percent control
EPHA6 = molecular target: T1, EPHA6 (Homo sapiens, UniProt Q9UF33); test: biochemical; conditions: read-out: Percent control
T1 sequence (Q9UF33 23-1036): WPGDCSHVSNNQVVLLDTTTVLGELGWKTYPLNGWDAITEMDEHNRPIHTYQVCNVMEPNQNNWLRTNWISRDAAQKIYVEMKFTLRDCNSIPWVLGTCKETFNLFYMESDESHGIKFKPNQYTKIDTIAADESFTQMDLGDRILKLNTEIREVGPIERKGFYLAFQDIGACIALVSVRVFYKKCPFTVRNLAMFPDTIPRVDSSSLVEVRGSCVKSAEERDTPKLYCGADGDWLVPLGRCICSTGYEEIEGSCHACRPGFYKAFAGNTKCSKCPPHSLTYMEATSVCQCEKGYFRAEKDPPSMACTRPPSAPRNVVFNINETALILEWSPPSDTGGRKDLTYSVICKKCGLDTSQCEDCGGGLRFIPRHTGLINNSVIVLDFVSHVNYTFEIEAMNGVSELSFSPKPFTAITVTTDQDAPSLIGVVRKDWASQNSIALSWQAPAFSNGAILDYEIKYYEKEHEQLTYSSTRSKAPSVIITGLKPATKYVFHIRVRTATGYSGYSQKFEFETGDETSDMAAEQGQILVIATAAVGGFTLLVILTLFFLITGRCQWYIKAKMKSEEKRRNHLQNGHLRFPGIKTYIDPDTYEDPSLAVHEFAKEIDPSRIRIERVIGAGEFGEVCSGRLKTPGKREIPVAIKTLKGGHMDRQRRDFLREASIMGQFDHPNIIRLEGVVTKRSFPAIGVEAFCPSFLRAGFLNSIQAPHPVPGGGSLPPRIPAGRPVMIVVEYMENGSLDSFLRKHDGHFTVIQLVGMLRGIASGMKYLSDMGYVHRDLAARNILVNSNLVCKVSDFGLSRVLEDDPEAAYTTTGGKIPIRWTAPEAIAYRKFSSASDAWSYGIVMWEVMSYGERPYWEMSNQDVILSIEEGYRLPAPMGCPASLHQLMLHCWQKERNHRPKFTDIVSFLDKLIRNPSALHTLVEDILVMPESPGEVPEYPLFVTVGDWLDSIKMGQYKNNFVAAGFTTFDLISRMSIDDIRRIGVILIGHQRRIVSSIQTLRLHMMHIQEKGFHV

EPHB1 = molecular target: T2, EPHB1 (Homo sapiens, UniProt P54762); test: biochemical; conditions: read-out: Percent control
T2 sequence (P54762 18-984): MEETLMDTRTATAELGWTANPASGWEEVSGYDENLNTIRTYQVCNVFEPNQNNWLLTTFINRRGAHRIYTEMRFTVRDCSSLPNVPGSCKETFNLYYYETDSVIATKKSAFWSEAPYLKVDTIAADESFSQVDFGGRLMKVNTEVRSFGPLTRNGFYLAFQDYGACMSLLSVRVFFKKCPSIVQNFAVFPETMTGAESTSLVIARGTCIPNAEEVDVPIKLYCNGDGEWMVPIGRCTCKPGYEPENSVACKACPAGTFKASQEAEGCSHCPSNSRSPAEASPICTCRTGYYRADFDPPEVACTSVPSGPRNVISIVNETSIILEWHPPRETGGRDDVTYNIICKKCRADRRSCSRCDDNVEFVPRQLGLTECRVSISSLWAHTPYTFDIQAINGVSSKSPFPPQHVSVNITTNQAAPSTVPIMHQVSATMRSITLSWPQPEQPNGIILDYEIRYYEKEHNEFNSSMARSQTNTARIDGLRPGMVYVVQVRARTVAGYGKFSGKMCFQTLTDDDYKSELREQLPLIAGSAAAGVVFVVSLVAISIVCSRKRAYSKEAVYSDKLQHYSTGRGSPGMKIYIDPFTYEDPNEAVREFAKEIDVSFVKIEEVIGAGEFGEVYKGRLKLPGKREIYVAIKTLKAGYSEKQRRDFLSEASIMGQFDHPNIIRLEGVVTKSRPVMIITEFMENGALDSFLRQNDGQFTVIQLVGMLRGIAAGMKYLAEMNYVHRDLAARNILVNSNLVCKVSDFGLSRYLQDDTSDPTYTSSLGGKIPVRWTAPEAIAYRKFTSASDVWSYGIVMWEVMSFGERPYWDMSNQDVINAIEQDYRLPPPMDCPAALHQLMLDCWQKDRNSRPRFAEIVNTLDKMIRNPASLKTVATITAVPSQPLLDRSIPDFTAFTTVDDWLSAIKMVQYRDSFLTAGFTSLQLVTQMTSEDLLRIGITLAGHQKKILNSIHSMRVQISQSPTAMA

SYK = SYK (Homo sapiens, UniProt P43405); test: biochemical; conditions: read-out: Percent control
KIT(V559D) = KIT(V559D) (Homo sapiens, UniProt P10721, V559D); test: biochemical; conditions: read-out: Percent control
ROS1 = ROS1 (Homo sapiens, UniProt P08922); test: biochemical; conditions: read-out: Percent control

Sequence of PDGFRB (P09619 33-1106): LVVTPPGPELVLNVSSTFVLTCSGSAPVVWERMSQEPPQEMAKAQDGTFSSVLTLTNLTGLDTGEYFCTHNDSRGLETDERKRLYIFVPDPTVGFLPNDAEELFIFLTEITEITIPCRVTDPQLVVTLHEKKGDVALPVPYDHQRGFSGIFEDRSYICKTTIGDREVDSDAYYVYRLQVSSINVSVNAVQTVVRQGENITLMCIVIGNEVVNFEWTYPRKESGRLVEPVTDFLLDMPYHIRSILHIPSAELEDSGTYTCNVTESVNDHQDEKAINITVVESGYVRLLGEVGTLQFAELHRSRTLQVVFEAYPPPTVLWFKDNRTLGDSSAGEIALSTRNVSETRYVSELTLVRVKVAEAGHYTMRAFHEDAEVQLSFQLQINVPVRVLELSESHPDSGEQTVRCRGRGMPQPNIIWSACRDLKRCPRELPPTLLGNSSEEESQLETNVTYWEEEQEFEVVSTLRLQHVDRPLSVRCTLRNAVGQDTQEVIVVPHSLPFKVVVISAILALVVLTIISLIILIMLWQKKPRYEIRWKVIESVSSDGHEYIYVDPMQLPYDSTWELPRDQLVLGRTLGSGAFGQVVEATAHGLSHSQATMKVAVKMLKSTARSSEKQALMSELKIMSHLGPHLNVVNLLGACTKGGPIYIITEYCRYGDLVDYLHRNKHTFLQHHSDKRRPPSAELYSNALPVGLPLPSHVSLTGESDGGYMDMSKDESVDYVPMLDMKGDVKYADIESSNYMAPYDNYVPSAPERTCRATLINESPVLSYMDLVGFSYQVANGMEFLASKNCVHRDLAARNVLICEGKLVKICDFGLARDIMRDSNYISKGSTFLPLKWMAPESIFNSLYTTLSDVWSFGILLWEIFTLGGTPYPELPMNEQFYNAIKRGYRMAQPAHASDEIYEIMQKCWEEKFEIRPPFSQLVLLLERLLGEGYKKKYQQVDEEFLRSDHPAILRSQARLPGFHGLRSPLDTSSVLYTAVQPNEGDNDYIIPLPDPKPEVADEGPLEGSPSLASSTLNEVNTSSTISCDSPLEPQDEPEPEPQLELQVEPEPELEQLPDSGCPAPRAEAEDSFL
Sequence of ABL2 (P42684 whole entry): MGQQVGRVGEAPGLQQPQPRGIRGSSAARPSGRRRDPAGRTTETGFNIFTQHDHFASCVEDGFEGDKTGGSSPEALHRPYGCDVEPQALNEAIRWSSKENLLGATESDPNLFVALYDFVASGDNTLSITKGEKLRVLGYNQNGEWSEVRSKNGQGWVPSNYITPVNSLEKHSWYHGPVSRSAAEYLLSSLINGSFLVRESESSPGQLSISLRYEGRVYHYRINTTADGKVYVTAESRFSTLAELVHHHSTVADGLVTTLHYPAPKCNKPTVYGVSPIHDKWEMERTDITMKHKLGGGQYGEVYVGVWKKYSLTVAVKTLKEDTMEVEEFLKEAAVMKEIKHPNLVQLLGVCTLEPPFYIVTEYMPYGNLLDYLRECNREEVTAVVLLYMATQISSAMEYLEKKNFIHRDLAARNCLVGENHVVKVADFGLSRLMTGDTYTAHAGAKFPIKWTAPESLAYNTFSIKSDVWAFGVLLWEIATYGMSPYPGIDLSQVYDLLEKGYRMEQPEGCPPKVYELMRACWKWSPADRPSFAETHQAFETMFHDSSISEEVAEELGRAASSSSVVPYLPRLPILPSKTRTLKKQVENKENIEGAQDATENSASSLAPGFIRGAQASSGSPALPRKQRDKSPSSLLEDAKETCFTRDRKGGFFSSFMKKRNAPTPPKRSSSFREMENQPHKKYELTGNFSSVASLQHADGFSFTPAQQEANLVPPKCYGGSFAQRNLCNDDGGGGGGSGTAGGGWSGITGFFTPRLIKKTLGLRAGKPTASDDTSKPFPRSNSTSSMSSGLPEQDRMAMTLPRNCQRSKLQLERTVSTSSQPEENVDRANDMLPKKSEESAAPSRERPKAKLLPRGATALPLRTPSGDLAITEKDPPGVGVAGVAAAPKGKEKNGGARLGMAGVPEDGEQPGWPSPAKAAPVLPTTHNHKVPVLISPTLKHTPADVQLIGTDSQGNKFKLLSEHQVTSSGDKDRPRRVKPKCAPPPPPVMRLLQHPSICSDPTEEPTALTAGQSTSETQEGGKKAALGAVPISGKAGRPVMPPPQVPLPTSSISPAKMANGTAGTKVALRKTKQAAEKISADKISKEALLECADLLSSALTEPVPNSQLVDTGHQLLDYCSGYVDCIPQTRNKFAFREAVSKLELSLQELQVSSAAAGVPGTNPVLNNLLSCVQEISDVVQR
Sequence of KIT(V559D) (P10721 26-976 V559D): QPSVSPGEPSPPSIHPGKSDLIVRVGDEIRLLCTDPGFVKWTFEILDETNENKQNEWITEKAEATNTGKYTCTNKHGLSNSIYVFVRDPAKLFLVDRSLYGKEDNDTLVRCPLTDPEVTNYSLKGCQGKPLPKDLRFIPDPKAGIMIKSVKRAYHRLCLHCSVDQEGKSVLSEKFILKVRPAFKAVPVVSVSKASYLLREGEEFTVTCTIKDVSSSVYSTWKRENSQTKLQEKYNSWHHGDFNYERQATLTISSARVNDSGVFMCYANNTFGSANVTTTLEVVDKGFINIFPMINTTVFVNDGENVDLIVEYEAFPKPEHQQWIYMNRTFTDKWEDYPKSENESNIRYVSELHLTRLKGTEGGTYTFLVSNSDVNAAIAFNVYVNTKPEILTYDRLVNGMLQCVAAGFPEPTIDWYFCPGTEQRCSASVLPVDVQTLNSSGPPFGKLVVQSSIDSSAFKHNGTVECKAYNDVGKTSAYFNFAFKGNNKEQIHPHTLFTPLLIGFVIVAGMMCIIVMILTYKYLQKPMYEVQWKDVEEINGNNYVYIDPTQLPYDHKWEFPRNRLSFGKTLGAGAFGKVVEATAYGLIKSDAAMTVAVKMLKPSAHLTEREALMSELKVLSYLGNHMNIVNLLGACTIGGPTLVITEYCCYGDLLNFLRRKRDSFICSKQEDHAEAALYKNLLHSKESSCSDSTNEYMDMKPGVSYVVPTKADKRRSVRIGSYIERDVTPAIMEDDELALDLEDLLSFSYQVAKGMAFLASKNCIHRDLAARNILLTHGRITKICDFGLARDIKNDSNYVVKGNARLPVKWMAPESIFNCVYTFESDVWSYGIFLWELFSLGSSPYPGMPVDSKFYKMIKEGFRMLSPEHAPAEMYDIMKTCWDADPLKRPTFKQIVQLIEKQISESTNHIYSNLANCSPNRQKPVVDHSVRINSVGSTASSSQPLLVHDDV
Sequence of MET(M1250T) (P08581 25-1390 M1250T): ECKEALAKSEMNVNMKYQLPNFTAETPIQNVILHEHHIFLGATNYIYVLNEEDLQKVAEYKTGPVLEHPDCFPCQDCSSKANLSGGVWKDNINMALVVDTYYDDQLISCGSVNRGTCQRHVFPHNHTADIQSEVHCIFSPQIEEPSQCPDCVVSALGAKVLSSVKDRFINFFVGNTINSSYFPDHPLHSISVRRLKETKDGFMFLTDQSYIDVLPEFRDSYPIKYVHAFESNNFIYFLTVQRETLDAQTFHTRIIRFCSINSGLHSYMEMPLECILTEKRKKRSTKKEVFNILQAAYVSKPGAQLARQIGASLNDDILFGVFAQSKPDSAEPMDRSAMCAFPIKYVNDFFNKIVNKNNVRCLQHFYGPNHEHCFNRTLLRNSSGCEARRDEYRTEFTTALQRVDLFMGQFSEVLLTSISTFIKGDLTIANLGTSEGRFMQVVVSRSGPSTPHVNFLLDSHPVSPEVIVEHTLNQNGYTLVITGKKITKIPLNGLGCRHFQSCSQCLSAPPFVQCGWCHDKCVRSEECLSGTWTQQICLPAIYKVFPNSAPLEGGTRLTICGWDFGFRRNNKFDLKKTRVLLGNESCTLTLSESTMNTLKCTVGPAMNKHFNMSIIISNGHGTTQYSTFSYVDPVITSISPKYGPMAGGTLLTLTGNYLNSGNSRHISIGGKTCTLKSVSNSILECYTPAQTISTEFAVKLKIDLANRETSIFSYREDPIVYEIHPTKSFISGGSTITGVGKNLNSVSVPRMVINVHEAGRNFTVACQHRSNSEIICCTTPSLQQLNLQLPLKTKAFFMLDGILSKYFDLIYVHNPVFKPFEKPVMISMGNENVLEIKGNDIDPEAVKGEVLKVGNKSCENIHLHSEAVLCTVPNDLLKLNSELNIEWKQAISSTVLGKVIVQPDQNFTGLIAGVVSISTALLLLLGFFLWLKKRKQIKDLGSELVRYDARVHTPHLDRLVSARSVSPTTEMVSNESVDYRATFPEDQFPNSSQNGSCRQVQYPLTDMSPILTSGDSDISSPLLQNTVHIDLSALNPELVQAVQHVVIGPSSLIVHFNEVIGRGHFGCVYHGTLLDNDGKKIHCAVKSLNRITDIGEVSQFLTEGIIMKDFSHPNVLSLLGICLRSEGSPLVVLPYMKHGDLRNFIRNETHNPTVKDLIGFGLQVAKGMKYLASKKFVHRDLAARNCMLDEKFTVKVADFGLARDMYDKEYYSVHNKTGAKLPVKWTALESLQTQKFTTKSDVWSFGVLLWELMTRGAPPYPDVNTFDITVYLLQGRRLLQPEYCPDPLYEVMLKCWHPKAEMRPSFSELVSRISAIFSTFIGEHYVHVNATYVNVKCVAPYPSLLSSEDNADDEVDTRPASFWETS

Cc1ccc(NC(=O)c2ccc(CN3CCN(C)CC3)cc2)cc1Nc1nccc(-c2cccnc2)[n+]1[Pt-2]1([Cl])[NH2+]C2CCCCC2[NH2+]1 (centres unmarked) [1b, oxaliplatin-imatinib]
Percent control (PDGFRB): 0.1%

C#Cc1cccc(Nc2c3cc(OCCOC)c(OCCOC)cc3nc[n+]2[Pt@SP2-2]([NH3+])([NH3+])[Cl])c1 [2a, cisplatin-erlotinib]
Percent control (PDGFRB): 85%
Percent control (ABL2): 46%

COc1cc2c(Nc3ccc(Br)cc3F)[n+]([Pt-2]3([Cl])[NH2+]C4CCCCC4[NH2+]3)cnc2cc1OCC1CCN(C)CC1 (centres unmarked) [3b, oxaliplatin-vandetanib]
Percent control (ABL2): 20%

C#Cc1cccc(Nc2ncnc3cc(OCCOC)c(OCCOC)cc23)c1 [Erlotinib]
remaining activity at 10 µM (FGFR2): 100%
remaining activity at 10 µM (MET(M1250T)): 21.9%
remaining activity at 10 µM (TRKC): 100%
remaining activity at 10 µM (EPHA6): 4.2%
remaining activity at 10 µM (EPHB1): 9.9%
remaining activity at 10 µM (SYK): 100%
remaining activity at 10 µM (KIT(V559D)): 23.7%
remaining activity at 10 µM (ROS1): 100%

Cc1ccc(NC(=O)c2ccc(CN3CCN(C)CC3)cc2)cc1Nc1nccc(-c2cccnc2)n1 [Imatinib, reference compound]
remaining activity at 10 µM (MET(M1250T)): 100%
remaining activity at 10 µM (KIT(V559D)): 0.1%

COc1cc2c(Nc3ccc(Br)cc3F)ncnc2cc1OCC1CCN(C)CC1 [Vandetanib, reference compound]
remaining activity at 10 µM (FGFR2): 9.9%
remaining activity at 10 µM (TRKC): 100%
remaining activity at 10 µM (EPHA6): 0.5%
remaining activity at 10 µM (EPHB1): 2.8%
remaining activity at 10 µM (SYK): 100%
remaining activity at 10 µM (ROS1): 100%
